From US20200246284A1 (Academia Sinica, priority 2015, published 2020) come the findings set out here.

Molecules are shown by their SMILES. Like-named read-outs stand apart in the source and are kept apart here.

Data set [1] has as its system CL100T1. In kind it is cell-based, human.
For data set [2], the system named is CL141T. In kind it is cell-based, human.
In data set [3] the test system is H1395. In kind it is cell-based, human.
The test system of data set [4] is H1650. In kind it is cell-based, human.
Data set [5] concerns H1666. In kind it is cell-based, human.
For data set [6], the system named is HCC364. In kind it is cell-based, human.
Data set [7] deals with MOR. Briefly: Cytotoxicity NSCLC. In kind it is cell-based, human.
The test system of data set [8] is H1703. In kind it is cell-based, human.
In data set [9] the test system is HCC2450. In kind it is cell-based, human.
The subject of data set [10] is H889. Briefly: Cytotoxicity SCLC 72 hr alamar blue. In kind it is cell-based, human. The following applies: read-out: IC50. In general terms: Alamar Blue is a resazurin reagent that responds to reducing activity.
Data set [11] has as its system OP9 calvarial stroma. Briefly: Cytotoxicity normal tissue 72 hr. In kind it is cell-based. As to conditions: OP9 (mouse).
Data set [12] concerns H526 xenografts. Briefly: SCLC H526 xenograft in NSG mice. In kind it is in vivo, mouse. The following applies: 30 mg/kg i.v. every second day; d30. An excerpt: Xenografts of GFP/Luciferase-labeled H526 were established in groups of ten NSG male mice aged 12 wks by subcutaneous injection of 50,000 tumor cells.
In data set [13] the test system is DLBCL (GBC) cell lines. Briefly: Combination of BO-1055 with PUH71, TT46, bortezomib, doxorubicin (Table 25). In kind it is cell-based. The following applies: Homo sapiens.
The test system of data set [14] is Ly3 (OCI-LY3). As to conditions: human.
Experimental: (§1) After 72 hours, the cultures were pulsed with Alamar Blue overnight, and the fluorescent intensity of resulted cultures was measured by a Synergy H1 plate-reader (BioTek Inc).
Data set [15] relates to SUDHL-6. As to conditions: human.
Experimental: as §1
Data set [16] relates to SUDHL-5. Description: Cytotoxicity DLBCL. The following applies: read-out: cytotoxicity IC50; SUDHL-5, DLBCL GCB.
Data set [17] relates to JEKO-1. Description: Cytotoxicity mantle cell lymphoma.
Experimental: as §1
Data set [18] relates to nude mice bearing prostate 22Rv/HL2. Description: Complete blood count, 22Rv/HL2 xenograft mice. The following applies: 24 hrs after last treatment.

Take `N.N.[Cl][Pt][Cl]` [Cisplatin]: the IC50 (usually the concentration at which inhibition is half-maximal) in data set [1] is 2.8 µM; in [2], 2.45 µM; in data set [3], ≥ 15 µM; in [4], 7.51 µM; in data set [5], ≥ 20 µM; in data set [6], ≥ 75 µM. The IC50 is 3.9 µM in data set [7], ≥ 20 µM in [8], ≥ 80 µM in data set [9] and 0.41 µM in [10].
On to `CN(C)CCNC(=O)c1cccc(NC(=O)Nc2ccc(N(CCCl)CCCl)cc2)c1` [BO-1055, Ureidomustine], for which the IC50 in data set [11] is ≥ 10 µM; in [13] (KARPAS-422, read-out: IC50 single agent) it was 5.85 µM; in data set [13] (OCI-LY19, read-out: IC50 single agent) it was 0.287 µM; in [13] (OCI-Ly8, read-out: IC50 single agent), 0.224 µM; in [13] (OCI-Ly18, read-out: IC50 single agent) it was 0.608 µM; in data set [13] (SU-DHL-4, read-out: IC50 single agent), 1.95 µM. The IC50 in data set [13] (SU-DHL-5, read-out: IC50 single agent) was found to be 4.14 µM; in data set [13] (SU-DHL-6, read-out: IC50 single agent), 5.93 µM; in [13] (Toledo, read-out: IC50 single agent), 8.95 µM; in [13] (read-out: IC50 single agent), 3.19 µM; in [14], 3.5 µM; in data set [15], 5.93 µM. In addition, the figures for the IC50 in data set [16] and in data set [17] were 4.14 µM and 0.27 µM, respectively. The tumor-free mice in data set [12] is listed as 3/5. Moreover, the BASO in [18] was 0.06 10^3/μL. Further, the EOS in data set [18] is on record as 0.14 10^3/μL. Further, the LYM in data set [18] was 1.52 10^3/μL. The MONO in data set [18] was 0.08 10^3/μL. Besides, the NEU in data set [18] is given as 0.83 10^3/μL. The PLT in [18] is on record as 195 10^3/μL. For the same compound, the RBC in data set [18] is 9.52 10^6/μL. Also, the WBC in [18] is 2.98 10^3/μL.
